Laboratory results as given in patent US5547939A, “Broad spectrum antimicrobial compounds and methods of use” (priority 1994, dated 1996).

Experiments:
erythrocyte suspension = test: Hemolytic assay (erythrocyte lysis assay); assay type: cell-based; conditions: for % Hemolysis: 30 μg peptide, 18 hr at 37° C., 100% lysis = 1% NP40
Protocol: The hemolytic activity of each peptide was examined using an erythrocyte lysis assay. An 8% (vol:vol) erythrocyte suspension in normal saline or in 80% mouse serum was incubated with 30 μg peptide. After 18 hr incubation at 37° C. intact erythrocytes were removed by centrifugation and the A550 of the supernatant was determined as a measure of hemolysis. As a control (100% lysis), supernatant was collected from an erythrocyte suspension treated with 1% NP40 detergent.

Escherichia coli ML35 [1] = test: Agar diffusion assay, E. coli; assay type: cell-based; conditions: E. coli ML35, FIG. 4
Protocol: (§1) The broad spectrum antimicrobial activity of indolicidin and indolicidin analogs also was determined using a gram negative bacterial strain, Escherichia coli ML35, a gram positive bacterial strain, Staphylococcus aureus 502A, and a fungus, Cryptococcus neoformans, in an agar diffusion assay, essentially as described by Hultmark et al., EMBO J. 2:571-576 (1983) as modified by Lehrer et al., J. Immunol. Meth. 137:167-173. Briefly, nutrient-containing agar (or agarose) plates were seeded with a selected target microorganism and 5-10 μl of peptide was placed into a well formed in the solid medium or onto a disc placed on the surface of the medium. Following an appropriate incubation interval, microbial growth inhibition was visualized and quantitated by measuring the clear zone around each well or disc (see, also, Selsted, 1993).

E. coli = test: Microbicidal kinetics of indolicidin; assay type: cell-based, Escherichia coli; conditions: 25 μg/ml
Protocol: (§2) The time course and dose-dependence of the antimicrobial activity of an indolicidin analog can be determined by incubating a microorganism with the analog and determining the viability after various times of incubation or after treatment with various concentrations of the analog. Assays were performed in 10 mM sodium phosphate buffer, pH 7.4, at 37° C., as described by Selsted et al. (Infect. Immun. 45:150-154 (1985), which is incorporated herein by reference).
The kinetics of indolicidin antimicrobial activity was evaluated by incubating 2×10^6 E. coli with 25 ug/ml of indolicidin for 1-40 min. Following incubation for the appropriate time, an aliquot of the culture was removed and diluted and plated as described above.

Cryptococcus neoformans = test: Agar diffusion assay, C. neoformans; assay type: cell-based; conditions: FIG. 5
Protocol: as §1

Escherichia coli ML35 [2] = test: Dose response bactericidal assay (CFU reduction), E. coli; assay type: cell-based; conditions: 2 hr incubation
Protocol: as §2
(§3) The dose response of a gram negative bacterial strain, Escherichia coli ML35, and a gram positive bacterial strain, Staphylococcus aureus 502A, to indolicidin was determined by incubating 2×10^6 colony forming units (CFU) of log phase bacteria with 0-25 ug/ml of indolicidin for two hours. Following incubation, the cultures were serially diluted and plated on nutrient agar. […] E. coli was more susceptible than S. aureus, as>95% of the input cells were killed after 2 hr incubation with 2.5 ug/ml indolicidin. The indolicidin diluent, 0.01% acetic acid, had no effect on either bacterial strain.

[3] = system: Staphylococcus aureus 502A; test: Agar diffusion assay, S. aureus; assay type: cell-based; conditions: S. aureus 502a, FIG. 6
Protocol: as §1

[4] = system: Staphylococcus aureus 502A; test: Dose response bactericidal assay (CFU reduction), S. aureus; assay type: cell-based; conditions: 10 ug/ml, 2 hr incubation, 2×10^6 CFU, 10 mM sodium phosphate pH 7.4, 37° C.
Protocol: as §2, §3

[5] = five attempts to raise antibodies
[6] = saline, 8% erythrocyte suspension in normal saline
[7] = serum, 8% erythrocyte suspension in 80% mouse serum

## H2 N--I--L--P--W--K--W--P--W--W--P--W--K--CONH2 (H-ILPWKWPWWPWK-NH2) [Indol-K12 --NH2, indolicidin analog having a deletion of R-13 and a substitution of K-12 for R-12]
Erythrocyte suspension; FIGS. 4-6 and Table 2
  antimicrobial selectivity (antimicrobial activity relative to hemolytic activity) compared with indolicidin: greater antimicrobial selectivity than indolicidin

## CC[C@H](C)[C@H](N)C(=O)N[C@@H](CC(C)C)C(=O)N1CCC[C@H]1C(=O)N[C@@H](Cc1c[nH]c2ccccc12)C(=O)N[C@@H](CCCCN)C(=O)N[C@@H](Cc1c[nH]c2ccccc12)C(=O)N1CCC[C@H]1C(=O)N[C@@H](Cc1c[nH]c2ccccc12)C(=O)N[C@@H](Cc1c[nH]c2ccccc12)C(=O)N1CCC[C@H]1C(=O)N[C@@H](Cc1c[nH]c2ccccc12)C(=O)N[C@@H](CCCNC(=N)N)C(=O)N[C@@H](CCCNC(=N)N)C(=O)O [Indol-R12 R13 --OH, H2 N--I--L--P--W--K--W--P--W--W--P--W--R--R--OH]
Erythrocyte suspension; [6]
  % Hemolysis: 47.9%
Erythrocyte suspension; [7]
  % Hemolysis: 3.0%

## CC[C@H](C)[C@H](N)C(=O)N[C@@H](CC(C)C)C(=O)N1CCC[C@H]1C(=O)N[C@@H](Cc1c[nH]c2ccccc12)C(=O)N[C@@H](CCCCN)C(=O)N[C@@H](Cc1c[nH]c2ccccc12)C(=O)N1CCC[C@H]1C(=O)N[C@@H](Cc1c[nH]c2ccccc12)C(=O)N[C@@H](Cc1c[nH]c2ccccc12)C(=O)N1CCC[C@H]1C(=O)N[C@@H](Cc1c[nH]c2ccccc12)C(=O)N[C@@H](CCCNC(=N)N)C(=O)N[C@@H](CCCNC(=N)N)C(N)=O [Indol-R12 R13 --NH2, H2 N--I--L--P--W--K--W--P--W--W--P--W--R--R--CONH2]
Escherichia coli ML35 [1]
  antimicrobial activity (clear zone) compared with indolicidin: greatest antimicrobial activity
E. coli; after 20 min
  state of the culture: essentially was sterilized
E. coli; within 5 min
  reduction of number of E. coli CFU: three orders of magnitude
Cryptococcus neoformans
  antimicrobial activity (clear zone) compared with indolicidin: greatest antimicrobial activity
Escherichia coli ML35 [2]; 2.5 ug/ml
  input cells killed: > 95%
Escherichia coli ML35 [2]; 10 ug/ml, 2×10^6 CFU, 10 mM sodium phosphate pH 7.4, 37° C.
  reduction of viability (CFU): reduced by at least four orders of magnitude
[3]
  antimicrobial activity (clear zone) compared with indolicidin: greatest antimicrobial activity
[4]
  reduction of viability (CFU): reduced by at least four orders of magnitude
Erythrocyte suspension; [6]
  % Hemolysis: 78.5%
Erythrocyte suspension; saline, 8% erythrocyte suspension in normal saline, listed as indolicidin
  % Hemolysis: greatest hemolytic activity
Erythrocyte suspension; [7]
  % Hemolysis: 2.3%
[5]
  immunogenicity: extremely low immunogenicity

## H2 N--I--L--P--W--K--W--P--W--W--P--W--R--OH (H-ILPWKWPWWPWR-OH) [Indol-R12 --OH, indolicidin analog]
Escherichia coli ML35 [1]
  antimicrobial activity (clear zone) compared with indolicidin: markedly less potent than indolicidin
Cryptococcus neoformans
  antimicrobial activity (clear zone) compared with indolicidin: markedly less potent than indolicidin
[3]
  antimicrobial activity (clear zone) compared with indolicidin: markedly less potent than indolicidin

## H2 N--I--L--P--W--K--W--P--W--W--P--W--R--N--CONH2 [Indol-R12 W13 --NH2]
Escherichia coli ML35 [1]
  antimicrobial activity (clear zone) compared with indolicidin: markedly less potent than indolicidin
Cryptococcus neoformans
  antimicrobial activity (clear zone) compared with indolicidin: markedly less potent than indolicidin
[3]
  antimicrobial activity (clear zone) compared with indolicidin: markedly less potent than indolicidin
